Measurements taken from patent US6693126B2, “Dihydroxyphenyl derivatives for hepatoprotection and treatment of liver diseases” (Choongwae Pharm. Co., Ltd., priority 2000, dated 2004).

Assays:
[1] = system: Liver Injuries caused by Carbon Tetrachloride in Rats; test: Inhibitory effect against liver injuries caused by carbon tetrachloride in rats; assay type: in vivo, Rats (SD, male); settings: CCl4 i.p., serum 24 h
Description: (§1) The carbon tetrachloride model(see, Philippe letteron et al., Biochemical Pharmacology, 39, 12, 2027-2034, 1990; Tips, 10, 1989; Kyoichi Kagawa et al., Japan J. Pharmacol., 42, 19-26, 1986; K. T. Liu and P. Lesca, Chem. Biol. Interactions, 41, 39-47, 1982; Richard O. et al., J. Biological Chemistry, 236, 2, 1961) is used most generally. This model has been established based on the internal phenomena that carbon tetrachloride is converted by cytochrome P-450 to a toxic free radical trichloromethyl(CCl3.), this radical is strongly bound to a thiol group of membrane protein on microsome of liver to form a lipid radical, which is then converted to a peroxy radical in the presence of oxygen to facilitate the peroxidation reaction of membrane lipid. That is, carbon tetrachloride suppresses protein biosynthesis in the liver, induces the increase of ALT and AST values in blood, and further causes histologically the centrilobular necrosis of the liver.
(§2) The degree of liver damage in the experimental animals was determined by measuring ALT and AST values in blood(see, Biol. Pharm. Bull., 20, 4, 381-385, 1997; Toxicology and Applied Pharmacology, 95, 1-11, 1988), and the hepatoprotective activity was calculated based on the following formula(see, Planta Medica, 55, 127-132, 1989). At this time, the hepatoprotective activity can also be calculated based on the same formula by replacing ALT value with AST value. [formula]
(§3) The hepatoprotective effect of the compound of the present invention was identified according to a known procedure(see, Philippe letteron et al., Biochemical Pharmacology, 39, 12, 2027-2034, 1990), and the protocol may be described in brief as follows.
(§4) Rats(SD, male, 180˜200 g) and mice(ICR, male, 27-35 g) used in the test were allowed in a condition of temperature 22±1° C. and relative humidity 60±5%. Feed and water were provided with no restriction while light and darkness were changed at an interval of 12 hours.
(§5) […] […] Each group included 8 test animals, and the test compound was orally administered once per animal. After 30 minutes(rat) or 1 hour(mouse) from the administration of the test compound, 10% carbon tetrachloride in corn oil solution was intraperitoneally injected in doses of 2 ml/kg in rats and 0.15 ml/kg in mice. As the control compounds, silymarin and DDB were selected.
(§6) The test animals were provided with no feed and sufficient water for 24 hours from the administration of carbon tetrachloride. […] This blood was centrifuged to obtain sera. ALT and AST values in the sera were measured using blood chemistry analyzer(Vitalab, Selectra II, Merck). The statistical significance for the test result of each group was examined based on Student's t-test, and the result was recognized as having a statistical significance when its P value is less than 5%.

[2] = system: Fulminant Liver Injuries caused by D-galactosamine/lipopolysaccharide in Mice; test: Inhibitory effect against fulminant liver injuries caused by D-galactosamine/lipopolysaccharide in mice (survival); assay type: in vivo, Mice (ICR, male); settings: D-galactosamine 800 mg/kg + lipopolysaccharide 10 μg/kg i.p., observed 24 hours
Description: Further, the D-galactosamine/lipopolysaccharide model(see, Chris Galanos et al., Proc. Natl. Acad. Sci. USA, 76, 11, 5939-5943, 1979; Koji Hase et al., Biol. Pharm. Bull., 20, 4, 381-385, 1997; Junichi Nagakawa et al., The Journal of Pharmacology and Experimental Therapeutics, 264, 1, 1992; Nolan J. D., Hepatology, 1, 458-465, 1981; Wendel A., Methods Enzymol., 186, 675-680, 1990) which is also used in the present invention for the identification of hepatoprotective effect is based on the phenomena that liver injuries are caused by immune responses in mouse. It has been reported that such kind of liver injuries are caused not by direct tissue lesions due to the chemicals but by secretion of tumor necrosis factor(TNF)-α, reactive oxygen, etc.(see, Hishinuma I. et al., Hepatology, 12, 1187-1191, 1990, Hase K. et al., Phytother. Res., 10, 387-392, 1996). Here, D-galactosamine supresses protein biosynthesis and as well highly increases the sensitivity of the liver cells for lipopolysaccharide by reducing uridine nucleotide.
The hepatoprotective effect of the compound of the present invention was identified according to a known procedure(see, Koji Hase et al., Biol. Pharm. Bull., 20, 4, 381-385, 1997), and the protocol may be described in brief as follows.
Mice(ICR, male, 27˜35 g) as the test animal were allowed in a condition of temperature 22±1° C. and relative humidity 60±5%. Feed and water were provided with no restriction while light and darkness were changed at an interval of 12 hours.
The compound of the present invention was suspended in a solvent corn oil, and this suspension was administered in a dose of 10 ml/kg. Each group included 10 test animals, and the test compound was orally administered once per animal. After 1 hour from the administration of the test compound, D-galactosamine and lipopolysaccharide each of which dissolved in physiological saline were intraperitoneally injected at the same time in doses of 800 mg/kg and 10 μg/kg, respectively. As the control compounds, SY-640[N-methyl-N-(3,4-methylenedioxyphenacyl)acetamide; EP0350251], silymarin and DDB were selected.
The statistical significance for the test result of each group was examined based on Student's t-test, and the result was recognized as having a statistical significance when its P value is less than 5%.

[3] = system: Liver Injuries caused by Carbon Tetrachloride in Mice; test: Inhibitory effect against liver injuries caused by carbon tetrachloride in mice; assay type: in vivo, mice (ICR, male); settings: CCl4 i.p., serum 24 h
Description: as §1, §2, §3, §4, §5, §6

Compound	Inhibitory Effect against Liver Injuries (%) ALT ([1]; dose 1.9 mg/kg p.o. once)	Inhibitory Effect against Liver Injuries (%) ALT ([1]; dose 5.6 mg/kg p.o. once)	Inhibitory Effect against Liver Injuries (%) ALT ([1]; dose 16.7 mg/kg p.o. once)	Inhibitory Effect against Liver Injuries (%) ALT ([1]; dose 50 mg/kg p.o. once)	Survival Rate (%) ([2]; dose 50 mg/kg oral once)	Inhibitory Effect against Liver Injuries (%) ALT ([3]; dose 1.9 mg/kg p.o. once)	Inhibitory Effect against Liver Injuries (%) ALT ([3]; dose 5.6 mg/kg p.o. once)	Inhibitory Effect against Liver Injuries (%) ALT ([3]; dose 16.7 mg/kg p.o. once)	Inhibitory Effect against Liver Injuries (%) ALT ([3]; dose 50 mg/kg p.o. once)	Survival Rate (%) ([2]; dose 5.6 mg/kg oral once)	Inhibitory Effect against Liver Injuries(%) AST ([3]; dose 16.7 mg/kg p.o. once)	Inhibitory Effect against Liver Injuries(%) AST ([3]; dose 50 mg/kg p.o. once)
O/N=C/c1ccc2c(c1)OCO2 [Compound 1]	44%	43%	68%	84%	90%	50%	79%	100%	100%	–	–	–
COc1cc(/C=N/OCc2ccccn2)cc2c1OCO2 [Compound 13, 6-(2-((2-pyridyl)methoxy)-2-azavinyl)-4-methoxybenzo [d]1,3-dioxolane]	53%	49%	59%	67%	90%	35%	43%	69%	100%	–	–	–
c1csc(-c2ccc3c(c2)OCO3)n1 [Compound 21, 2-(benzo[3,4-d]1,3-dioxolan-5-yl)-1,3-thiazole]	–	–	63%	67%	–	–	–	99%	100%	100%	97%	100%
CC(=O)SCC(=O)c1ccc2c(c1)OCO2 [Compound 28, 1-(benzo[3,4-d]1,3-dioxolan-5-yl)-2-acetylthioethan-1-one]	–	–	14%	41%	–	–	–	93%	100%	100%	94%	100%
COC(=O)c1cc(OC)c2c(c1-c1c(C(=O)OC)cc(OC)c3c1OCO3)OCO2 [DDB, reference compound]	–	–	–	21%	80%	–	–	–	22%	–	–	6%
